Experiments:
AhR-GFP = molecular target: T1, AhR-GFP (Homo sapiens, UniProt P35869); assay: MCF7 AhR-GFP.IRES.mCherry reporter, flow cytometry quantification of AhR protein levels; type: cell-based; conditions: 5 μM, 5 h
T1 construct: host or cells: MCF7, lentiviral transduction
Procedure: Figure 6 Bifunctional AhR probes and AhR reporter in MCF7 cells. (a) Synthetic access to the conjugatable AhR ligand 5m. (b) Structure, yield, and EC50 value of the model amide 12a and MD simulation of AhR with 12a (last snapshot). (c) PROTAC-like compound 12b and dual probes 12c–d. Reaction conditions: (a) 5m (1 equiv), amine (1 equiv), HATU, DIPEA, DMF, rt, 24 h, Ar atm; (b) 5m (2 equiv), diamine (1 equiv), HATU, DIPEA, DMF, rt, 24 h, Ar atm. (d) General setup of the reporter system for quantifying AhR protein levels. (e) The population of MCF7 reporter cells (MCF7 AhR-GFP.IRES.mCherry) gated by flow cytometry and used for quantification of AhR. […] Values represent the ratio of the geometric mean of GFP and mCherry values in the gated population. (g) Change in protein levels relative to vehicle treatment (DMSO) in MCF7 cells treated with 12b at 10 μM for 5 h quantified by TMT labeling and LC/MS analysis versus p-Value. TEXT PRINTED IN THE PICTURE: (b) 12a: EC50 = 0.40 μM […]
To test the effect of these compounds on AhR abundance, we established a cellular reporter in the breast cancer cell line MCF7. AhR in this case is fused to GFP bearing an independently translated mCherry on the same transcript to allow correction for general transcriptional interference of treatments (Figure 6d,e). […]

HaCaT cells = assay: UVA phototoxicity, caspase 3 activity in HaCaT cells; type: cell-based, human; conditions: for UVA radiation-induced caspase activity (phototoxicity): HaCaT, 1 h, UVA 5 J/cm2
Procedure: Irradiation with UVA and caspase 3 activity measurement […]
culture media was exchanged with PBS and the cells were sham or UVA (5 J/cm2) irradiated using the BS-02 irradiation chamber (Opsytec Dr. Gröbel, Ettlingen Germany). Media was added to the cells and after 4 h incubation, caspase 3 activity was measured as described previously.[33] Protein quantification was done with the Bio-Rad DC protein assay kit (Bio-Rad Laboratories, Hercules, CA) according to the manufacturer protocol.
We compared the phototoxic potential of five of our test compounds (8, 10, 5b, 5h, 4b) as well as the FDA-approved AhR activator […]
induced caspase activity at a concentration of 100 nM (Figure S36A). At a 10-fold higher concentration (1 µM) two of the test compounds […]
Figure S36. […] For statistical analysis a two-way ANOVA (Tukey post-hoc) was performed and data are shown as mean ± SEM. (*, p ≤ 0.05). […]

[1] = Solubility in the growing media during cytotoxicity testing; type: physicochemical; conditions: concentration of 100 µM
Procedure: A phosphatidylserine exposure was used to determine cell viability. Cells were washed with PBS, pelleted, and then incubated with annexin binding buffer containing Annexin V-APC (Life Technologies) for 15 min in the dark. Then, samples were analyzed by flow cytometry using FACSCanto II and FACSDiva (BD Biosciences, Franklin Lakes, NJ, USA). Data represents the percentage of non - apoptotic cells (Ann -APC-).
The cytotoxicity of a selection of the synthesized compounds was assessed after 24 hours of treatment in two human cell lines, Jurkat and HEK293T, coming from either tumoral T-cell lymphocytes or non-tumoral embryonic kidney fibroblasts, respectively. […]
the pro-apoptotic activity was not significant below 10 µM for most compounds in both cell lines, except for 5i, 5k and 5l in both cell lines, as well as 9a in Jurkat and 5e HEK293T cells (Figure S35A-B).
Moreover, the cytotoxicity of compounds 4d, 5b, 5h, 8, 10, and 12d at a higher concentration (100 µM) was assessed in both cell lines, Jurkat and HEK293T. The cytotoxicity of compounds 5b, 5h, and 12d could not be properly tested as the compounds were not soluble […]
effects observed for compound 4d in Jurkat cells and compound 8 in HEK293T cells (Figure S35C).
Figure S35. A) Jurkat and B) HEK293T cells were treated with 1 and 10 µM doses of the corresponding compound for 24 hours. Indicated doses of fluorizoline were used as a positive control of cell death. C) Jurkat and HEK293T cells were treated with 100 µM of the corresponding compound for 24 hours. Viability was measured by flow cytometry, and it is expressed as the mean ± SEM (n = 3) of the percentage of non -apoptotic cells (Ann-APC-). * p < 0.05, ** p < 0.01 *** p < […]
(1 picture or pasted object on this page, not shown here)

T1 sequence (P35869 11-848): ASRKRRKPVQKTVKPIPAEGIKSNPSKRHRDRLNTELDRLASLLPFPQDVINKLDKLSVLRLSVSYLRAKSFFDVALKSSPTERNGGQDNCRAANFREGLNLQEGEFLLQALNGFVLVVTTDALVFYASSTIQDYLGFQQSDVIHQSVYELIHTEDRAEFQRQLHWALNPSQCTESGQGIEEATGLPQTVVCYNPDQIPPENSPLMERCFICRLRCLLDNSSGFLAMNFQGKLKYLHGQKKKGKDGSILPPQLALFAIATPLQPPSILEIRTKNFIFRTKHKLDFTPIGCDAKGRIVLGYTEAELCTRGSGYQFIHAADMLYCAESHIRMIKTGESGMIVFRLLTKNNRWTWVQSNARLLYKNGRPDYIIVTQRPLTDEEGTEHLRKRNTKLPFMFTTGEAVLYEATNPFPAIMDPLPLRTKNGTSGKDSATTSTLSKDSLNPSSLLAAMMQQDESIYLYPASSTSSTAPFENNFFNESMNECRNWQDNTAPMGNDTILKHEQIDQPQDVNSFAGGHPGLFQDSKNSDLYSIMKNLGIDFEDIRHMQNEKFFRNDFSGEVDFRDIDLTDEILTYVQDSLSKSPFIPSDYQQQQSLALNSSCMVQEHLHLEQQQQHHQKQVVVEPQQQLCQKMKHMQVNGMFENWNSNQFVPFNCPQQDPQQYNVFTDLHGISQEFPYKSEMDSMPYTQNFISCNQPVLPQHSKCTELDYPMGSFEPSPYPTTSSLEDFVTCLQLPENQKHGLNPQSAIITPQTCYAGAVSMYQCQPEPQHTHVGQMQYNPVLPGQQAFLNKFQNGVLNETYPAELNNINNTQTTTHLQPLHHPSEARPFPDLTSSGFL
T1 sequence (P08238 whole entry partner): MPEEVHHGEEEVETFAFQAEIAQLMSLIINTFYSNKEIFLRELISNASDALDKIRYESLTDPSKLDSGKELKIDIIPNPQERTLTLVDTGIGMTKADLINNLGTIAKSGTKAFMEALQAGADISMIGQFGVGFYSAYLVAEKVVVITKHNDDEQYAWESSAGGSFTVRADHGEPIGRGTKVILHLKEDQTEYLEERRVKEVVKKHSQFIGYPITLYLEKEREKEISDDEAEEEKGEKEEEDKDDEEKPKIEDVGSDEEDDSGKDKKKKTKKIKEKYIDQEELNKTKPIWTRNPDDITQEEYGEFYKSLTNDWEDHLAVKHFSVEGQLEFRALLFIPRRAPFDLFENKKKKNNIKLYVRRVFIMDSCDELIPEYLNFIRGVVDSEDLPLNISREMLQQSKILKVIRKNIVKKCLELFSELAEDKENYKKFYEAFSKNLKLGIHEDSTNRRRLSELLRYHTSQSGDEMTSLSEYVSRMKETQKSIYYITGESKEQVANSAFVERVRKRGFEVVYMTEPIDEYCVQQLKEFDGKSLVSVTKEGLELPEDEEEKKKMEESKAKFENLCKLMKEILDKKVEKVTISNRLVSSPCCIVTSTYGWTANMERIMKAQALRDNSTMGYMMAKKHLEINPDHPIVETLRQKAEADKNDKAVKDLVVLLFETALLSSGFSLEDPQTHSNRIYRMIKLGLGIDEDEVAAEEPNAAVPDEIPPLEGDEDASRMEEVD
T1 sequence (O00170 whole entry partner): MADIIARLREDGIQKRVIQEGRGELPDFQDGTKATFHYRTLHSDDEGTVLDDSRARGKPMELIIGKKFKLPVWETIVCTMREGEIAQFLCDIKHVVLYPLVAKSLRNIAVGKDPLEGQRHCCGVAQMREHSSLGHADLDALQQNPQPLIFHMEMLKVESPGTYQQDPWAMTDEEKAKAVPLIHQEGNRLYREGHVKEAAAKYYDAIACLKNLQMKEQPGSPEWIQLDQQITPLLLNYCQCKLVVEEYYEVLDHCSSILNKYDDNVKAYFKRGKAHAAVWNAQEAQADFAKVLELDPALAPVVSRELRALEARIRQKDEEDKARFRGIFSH

AhR degradation in reporter system (AhR-GFP)	SMILES	overlap between effective and toxic concentrations (HaCaT cells)	UVA radiation-induced caspase activity (phototoxicity) (HaCaT cells; 100 nM)	UVA radiation-induced caspase activity (phototoxicity) (HaCaT cells; 1 µM)	solubility in the growing media [1]
pronounced AhR degradation	Cc1[nH]c2ccccc2c1-c1c2[nH]c3ccccc3c2cc2[nH]c3ccccc3c12 [5e]	–	–	–	–
–	CCOc1c2[nH]c3ccccc3c2cc2[nH]c3ccccc3c12 [compound 8, 6-ethoxy-ICZ]	minimal overlap	neither tapinarof nor our 6-ICZ compounds enhanced	exhibited similar effects to FICZ	slight turbidity
